These results are taken from ChEMBL document CHEMBL1201862, “PubChem BioAssay data set” (2004).

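Cells were grown in 96-well plates and exposed to each compound for 48 hours at five concentrations; endpoints were interpolated linearly between bracketing concentrations, or set to the highest concentration if not reached. The concentration for 50% growth inhibition is given as GI50.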 The source made the active and inactive calls. No stated cut-off is given here; in the data, active = GI50 up to about 1.1 µM and inactive = higher. Bounds are passed on as bounds.

Among the test systems are ACHN; CAKI-1; COLO 205; EKVX; HCC 2998; HCT-116; HCT-15; HT-29; K562; M14; NCI-H23; OVCAR-8; SF-539; SK-MEL-2; TK-10; UO-31; CCRF-CEM; NCI-H460; SNB-75; U-251.
Holding throughout (experiment): inhibition of tumour cell growth, NCI panel, 48 h

As for `CC1OC2=N[C@@H]1C(=O)N[C@@H](Cc1ccccc1)C1=N[C@H](C(=O)N[C@@H](Cc3ccccc3)C3=N[C@H](C(=O)N[C@H]2Cc2ccccc2)C(C)O3)C(C)O1` (stereo partly specified), the GI50 in the experiment with ACHN is 31.3 µM (inactive); in the experiment on CAKI-1, 40.4 µM (inactive); in the experiment on COLO 205, 18.6 µM (inactive); in the experiment on EKVX, 49.5 µM (inactive); with HCC 2998, 34.5 µM (inactive); in the experiment on HCT-116 it was 23.3 µM (inactive). Further, the GI50 was 30.6 µM in the experiment with HCT-15; 20 µM (inactive) with HT-29; 26.7 µM (inactive) with K562; 22.6 µM (inactive) with M14; 37.2 µM (inactive) in the experiment on NCI-H23; 26.4 µM (inactive) in the experiment on OVCAR-8. Moreover, the GI50 with SF-539 is 24.2 µM (inactive); in the experiment with SK-MEL-2, 25.1 µM (inactive); in the experiment with TK-10, 26.5 µM (inactive); in the experiment with UO-31, 31.8 µM (inactive).
In the case of `NCCC1(N)CCNCC1`, the GI50 in the experiment with ACHN, in the experiment on CAKI-1, with CCRF-CEM, in the experiment with COLO 205, in the experiment on EKVX and with HCT-116 was > 100 µM (inactive) throughout. In addition, the GI50 is greater than 100 µM in the experiment on HCT-15; > 100 µM (inactive) in the experiment with HT-29; > 100 µM (inactive) in the experiment on K562; > 100 µM (inactive) with M14; > 100 µM (inactive) in the experiment with NCI-H23; > 100 µM (inactive) in the experiment with NCI-H460. Also, the GI50 in the experiment on OVCAR-8 was > 100 µM (inactive); with SF-539, > 100 µM (inactive); in the experiment on SK-MEL-2 it was > 100 µM (inactive); in the experiment on SNB-75, 13.7 µM (inactive); in the experiment with TK-10 it was > 100 µM (inactive); with U-251, > 100 µM (inactive). For the same compound, in the experiment with UO-31, the GI50 was > 100 µM (inactive).
As for `CC(C)=CCC/C(C)=C/CCC(C(=O)COCc1ccccc1)P1(=O)OC(C)(C)CN1C(C)(C)C` (stereo unspecified), the GI50 was > 100 µM (inactive) in the experiment on ACHN; > 100 µM (inactive) in the experiment with CAKI-1; 30.6 µM (inactive) in the experiment on CCRF-CEM; 42.2 µM (inactive) in the experiment on COLO 205; > 100 µM (inactive) with EKVX; 33.1 µM (inactive) in the experiment with HCT-116. Besides, the GI50 is 48.6 µM in the experiment on HCT-15; 33.2 µM (inactive) in the experiment with HT-29; 31.9 µM (inactive) in the experiment on K562; 93.5 µM (inactive) with M14; 86.5 µM (inactive) with NCI-H23; 52.2 µM (inactive) in the experiment on NCI-H460. In addition, the GI50 in the experiment with SF-539 was > 100 µM (inactive); in the experiment with SK-MEL-2, 35.5 µM (inactive); in the experiment with SNB-75, 28.9 µM (inactive); in the experiment with TK-10 it was > 100 µM (inactive); in the experiment on U-251 it was > 100 µM (inactive); in the experiment with UO-31 it was 50.4 µM (inactive).
Consider `CC1(C)COC(/C=C/C2=NC(C)(C)CO2)=N1`, for which the GI50 was 17.4 µM (inactive) in the experiment on ACHN; 5.89 µM (inactive) in the experiment on CAKI-1; 7.59 µM (inactive) in the experiment on CCRF-CEM; 14.4 µM (inactive) in the experiment on COLO 205; 16.9 µM (inactive) in the experiment with EKVX; 10.6 µM (inactive) in the experiment on HCT-116. Besides, the GI50 in the experiment with HCT-15 was 15.1 µM; in the experiment on HT-29, 21.2 µM (inactive); in the experiment with K562, 18.2 µM (inactive); with M14 it was 14.7 µM (inactive); in the experiment on NCI-H23, 23.2 µM (inactive); with NCI-H460, 67 µM (inactive). The GI50 in the experiment on OVCAR-8 was 20.3 µM (inactive); in the experiment with SF-539, 22 µM (inactive); in the experiment on SK-MEL-2, 26.5 µM (inactive); in the experiment on SNB-75, > 100 µM (inactive); with TK-10 it was 11.3 µM (inactive); in the experiment with U-251, 21.1 µM (inactive). Besides, the GI50 with UO-31 is 18.6 µM (inactive).
With `COc1ccc(C2C(Cl)C(=O)N2NC(=O)c2ccccc2O)cc1` (stereo unspecified), the GI50 in the experiment with CCRF-CEM, in the experiment with COLO 205, in the experiment on EKVX, in the experiment on HCT-116, with HT-29 and with K562 was > 100 µM (inactive) in each case. The GI50 with M14, in the experiment on NCI-H23, in the experiment on NCI-H460, in the experiment on OVCAR-8, with SF-539 and in the experiment with SK-MEL-2 was > 100 µM (inactive) each time. The GI50 in the experiment with SNB-75, in the experiment with TK-10, in the experiment on U-251 and with UO-31 was > 100 µM (inactive) each time.
As to `C=CCN(N=O)C(=O)N(CCC)CCCCC(NC(C)=O)C(=O)NCc1ccccc1` (stereo unspecified), the GI50 in the experiment with ACHN is > 100 µM (inactive); with CAKI-1, 48.2 µM (inactive); in the experiment with CCRF-CEM it was 33.7 µM (inactive); in the experiment with COLO 205 it was > 100 µM (inactive); in the experiment on EKVX it was > 100 µM (inactive); with HCT-15 it was greater than 100 µM. Besides, the GI50 in the experiment on HT-29 was 29.2 µM (inactive); with K562, 51.6 µM (inactive); with M14 it was > 100 µM (inactive); in the experiment on NCI-H23 it was > 100 µM (inactive); with NCI-H460, > 100 µM (inactive); in the experiment with OVCAR-8, > 100 µM (inactive). Further, the GI50 is > 100 µM (inactive) in the experiment on SF-539; > 100 µM (inactive) in the experiment on SK-MEL-2; 71.8 µM (inactive) with SNB-75; > 100 µM (inactive) in the experiment on TK-10; > 100 µM (inactive) in the experiment with U-251; 88.1 µM (inactive) in the experiment with UO-31.
With `COC(=O)c1c(O)ccc2c1c1c(n2Cc2cccc(C)c2)C(=O)c2ccccc2C1`, the GI50 with ACHN was 21.1 µM (inactive); in the experiment with CAKI-1, 8.75 µM (inactive); with CCRF-CEM, 12.4 µM (inactive); in the experiment with COLO 205, 12.1 µM (inactive); with EKVX it was 0.0931 µM (active); in the experiment on HCT-116, 7.85 µM (inactive). Moreover, the GI50 in the experiment with HCT-15 is 19.7 µM; in the experiment with HT-29 it was 10.3 µM (inactive); with K562 it was 29.4 µM (inactive); in the experiment on M14 it was 14.5 µM (inactive); with NCI-H23, 23.7 µM (inactive); in the experiment with NCI-H460 it was 19.4 µM (inactive). Also, the GI50 with OVCAR-8 was 26.2 µM (inactive); in the experiment with SF-539 it was 17.1 µM (inactive); with SK-MEL-2 it was 45 µM (inactive); with TK-10, 22 µM (inactive); in the experiment on U-251, 14.5 µM (inactive); with UO-31, > 75 µM (inactive).
For the compound `COC(=O)C1CCC(=O)N1C(=O)Cc1ccc(OC)cc1` (stereo unspecified), the GI50 was > 100 µM (inactive) in the experiment with ACHN; > 100 µM (inactive) in the experiment on CAKI-1; > 100 µM (inactive) with COLO 205; > 100 µM (inactive) in the experiment on EKVX; > 100 µM (inactive) in the experiment on HCT-116; greater than 100 µM in the experiment on HCT-15. Besides, the GI50 in the experiment on HT-29, in the experiment with M14, in the experiment with NCI-H23, in the experiment on NCI-H460, with OVCAR-8 and with SNB-75 was > 100 µM (inactive) in each case. Further, the GI50 in the experiment with TK-10, in the experiment on U-251 and in the experiment on UO-31 was > 100 µM (inactive) in each case.
With `Cn1ccnc1C(O)(c1nccn1C)c1nccn1C`, the GI50 with ACHN, with CAKI-1, with COLO 205, with EKVX, in the experiment on HCC 2998 and in the experiment with HT-29 was > 100 µM (inactive) in each case. Besides, the GI50 in the experiment on M14, in the experiment on NCI-H23, in the experiment on NCI-H460, with OVCAR-8, with SK-MEL-2 and in the experiment on SNB-75 was > 100 µM (inactive) each time. Besides, the GI50 with TK-10, in the experiment with U-251 and with UO-31 was > 100 µM (inactive) each time.
For `CCCCP1(=O)C=CC(Cl)=C(C)C1` (stereo unspecified), the GI50 with ACHN, in the experiment with CCRF-CEM, in the experiment with COLO 205, in the experiment on EKVX, in the experiment on HCC 2998 and in the experiment on HCT-116 was > 100 µM (inactive) each time. Besides, the GI50 in the experiment on HCT-15 was greater than 100 µM; with HT-29 it was > 100 µM (inactive); with K562, > 100 µM (inactive); in the experiment with M14, > 100 µM (inactive); in the experiment with NCI-H23 it was > 100 µM (inactive); in the experiment on NCI-H460, > 100 µM (inactive). Also, the GI50 with OVCAR-8, in the experiment with SF-539, with SK-MEL-2, with TK-10, in the experiment with U-251 and in the experiment with UO-31 was > 100 µM (inactive) throughout.
In the case of `CC1(C)CCC(C)(C)c2c1ccc(O)c2Cc1c(O)ccc2c1C(C)(C)CCC2(C)C`, the GI50 was 1.74 µM (inactive) with ACHN; 2.15 µM (inactive) in the experiment with CAKI-1; 2.31 µM (inactive) in the experiment on CCRF-CEM; 2.13 µM (inactive) in the experiment with COLO 205; 2.93 µM (inactive) with EKVX; 2 µM (inactive) in the experiment with HCT-116. Also, the GI50 was 1.92 µM in the experiment on HCT-15; 2.19 µM (inactive) in the experiment with HT-29; 2.19 µM (inactive) with K562; 1.88 µM (inactive) in the experiment with M14; 2.04 µM (inactive) in the experiment on NCI-H23; 2.47 µM (inactive) in the experiment on NCI-H460. The GI50 in the experiment with OVCAR-8 is 2.13 µM (inactive); in the experiment on SF-539, 1.99 µM (inactive); in the experiment with SK-MEL-2, 1.65 µM (inactive); in the experiment on SNB-75 it was 2.01 µM (inactive); in the experiment on TK-10, 1.98 µM (inactive); in the experiment with U-251 it was 1.78 µM (inactive). Moreover, the GI50 in the experiment with UO-31 was 1.92 µM (inactive).
